Experiments:
[1] = tested on: barnyardgrass; assay: Test B pre-/postemergence herbicide test; type: in vivo, Echinochloa crus-galli
Summary of the method: (§1)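 Test chemicals in a non-phytotoxic solvent mixture with surfactant were applied preemergence to seeded species and postemergence to plants 2-18 cm tall (1- to 4-leaf stage); rice and barnyardgrass were also tested in a flooded paddy at the 2-leaf stage. Visual rating versus controls after 13-15 days in greenhouse, scale 0 (no effect) to 100 (complete control).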

[2] = tested on: Surinam grass; assay: Test B pre-/postemergence herbicide test; type: in vivo, Urochloa decumbens
Summary of the method: (§2)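 Plants compared with untreated controls 13–15 days post-treatment and given a visual 0–100 injury score. Applications: preemergence to seeds; postemergence at 1- to 4-leaf (2–18 cm); paddy species flooded, 2-leaf stage. Vehicle non-phytotoxic, surfactant included.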

[3] = tested on: cocklebur; assay: Test B pre-/postemergence herbicide test; type: in vivo, Xanthium strumarium
Summary of the method: as §1

[4] = tested on: corn; assay: Test B pre-/postemergence herbicide test; type: in vivo, Zea mays
Summary of the method: as §2

[5] = tested on: large crabgrass; assay: Test B pre-/postemergence herbicide test; type: in vivo, Digitaria sanguinalis
Summary of the method: as §2

[6] = tested on: giant foxtail; assay: Test B pre-/postemergence herbicide test; type: in vivo, Setaria faberi
Summary of the method: as §2

[7] = tested on: morningglory; assay: Test B pre-/postemergence herbicide test; type: in vivo, Ipomoea coccinea
Summary of the method: as §1

[8] = tested on: pigweed; assay: Test B pre-/postemergence herbicide test; type: in vivo, Amaranthus retroflexus
Summary of the method: as §2

[9] = tested on: velvetleaf; assay: Test B pre-/postemergence herbicide test; type: in vivo, Abutilon theophrasti
Summary of the method: as §2

[10] = tested on: blackgrass; assay: Test B postemergence herbicide test; type: in vivo, Alopecurus myosuroides
Summary of the method: (§3)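 Paddy species grown to the 2-leaf stage under flooding; blackgrass sprayed postemergence at 2–18 cm (1- to 4-leaf stage). Plants kept in a greenhouse for 13 to 15 days, then visually rated against controls on 0 (no effect) to 100 (complete control).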

[11] = tested on: wheat; assay: Test B postemergence herbicide test; type: in vivo, Triticum aestivum; set-up: key to Wheat plant response rating: 0 = no effect, 100 = complete control
Summary of the method: (§4)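 Read-out: visual comparison with controls, scored 0 to 100, where 100 means complete control and 0 no effect. Formulated chemicals were applied postemergence to plants 2–18 cm tall (1- to 4-leaf), or to flooded-paddy plants at the 2-leaf stage, then held 13 to 15 days under glass.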

[12] = tested on: wild oat; assay: Test B postemergence herbicide test; type: in vivo, Avena fatua
Summary of the method: as §4

[13] = tested on: rice; assay: Test B flooded paddy test; type: in vivo, Oryza sativa; conditions: 1000 g ai/ha, scale 0 to 100 (0 no effect, 100 complete control)
Summary of the method: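 Formulated test chemicals went onto postemergence plants measuring 2 to 18 cm, at one to four leaves. For the paddy assay, species had reached two leaves. Scoring took place 13–15 days later by eye, relative to untreated plants, using 0 for no effect up to 100 for full control.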

[14] = tested on: small flower umbrella sedge; assay: Test B flooded paddy test; type: in vivo, Cyperus difformis; conditions: 1000 g ai/ha, scale 0 to 100 (0 no effect, 100 complete control)
Summary of the method: as §3

[15] = tested on: ducksalad; assay: Test B flooded paddy test; type: in vivo, Heteranthera limosa; conditions: 1000 g ai/ha, scale 0 to 100 (0 no effect, 100 complete control)
Summary of the method: as §3

[16] = 125 g ai/ha; 0 = no effect, 100 = complete control; preemergence
[17] = 125 g ai/ha; visual rating, scale 0 (no effect) to 100 (complete control); postemergence
[18] = 500 g ai/ha; visual rating, 0 = no effect, 100 = complete control; preemergence
[19] = postemergence, 500 g ai/ha; scale 0 to 100, 0 is no effect, 100 is complete control
[20] = postemergence, 125 g ai/ha; visual rating, scale 0 (no effect) to 100 (complete control)

CCNC(=O)c1ccc(F)c(NC(=O)c2cc(C3(C)CC3)nn2CC)c1 [Compound 300]
90: Plant response rating, Barnyardgrass [1, 18] | Morningglory plant response rating [7, 17] | Morningglory plant response rating [7, 19] | Pigweed plant response rating [8, 19] | Rice plant response rating [13] | Sedge, Umbrella plant response rating [14] | Ducksalad plant response rating [15]
60: Plant response rating, Morningglory [7, 18]
100: Plant response rating, Surinam Grass [2, 18] | Crabgrass, Large plant response rating (0 to 100 scale) [5, 16] | Plant response rating, Crabgrass, Large [5, 18] | Plant response rating, Foxtail, Giant [6, 18] | Pigweed plant response rating (0 to 100 scale) [8, 16] | Plant response rating, Pigweed [8, 18] | Plant response rating, Velvetleaf [9, 18]
30: Barnyardgrass plant response rating [1, 17] | Corn plant response rating [4, 17] | Corn plant response rating [4, 19] | Crabgrass, Large plant response rating [5, 19] | Foxtail, Giant plant response rating [6, 17] | Foxtail, Giant plant response rating [6, 19] | Blackgrass plant response rating [10, 19] | Oat, Wild plant response rating [12, 17] | Oat, Wild plant response rating [12, 19]
80: Surinam Grass plant response rating (0 to 100 scale) [2, 16] | Foxtail, Giant plant response rating (0 to 100 scale) [6, 16] | Pigweed plant response rating [8, 17]
0: Corn plant response rating (0 to 100 scale) [4, 16]
50: Barnyardgrass plant response rating [1, 19] | Cocklebur plant response rating [3, 19]
10: Surinam Grass plant response rating [2, 17] | Surinam Grass plant response rating [2, 19] | Cocklebur plant response rating (0 to 100 scale) [3, 16] | Cocklebur plant response rating [3, 17] | Crabgrass, Large plant response rating [5, 17] | Morningglory plant response rating (0 to 100 scale) [7, 16] | Blackgrass plant response rating [10, 17] | Wheat plant response rating [11, 17]
70: Barnyardgrass plant response rating (0 to 100 scale) [1, 16] | Plant response rating, Corn [4, 18] | Velvetleaf plant response rating [9, 19]
40: Velvetleaf plant response rating [9, 17]
20: Plant response rating, Cocklebur [3, 18] | Wheat plant response rating [11, 19]

CCNC(=O)c1ccc(F)c(NC(=O)C2CC(C(C)(C)C)=NN2CC)c1 (racemic) [Compound 269]
100: Plant response rating, Barnyardgrass [1, 18] | Plant response rating, Surinam Grass [2, 18] | Crabgrass, Large plant response rating (0 to 100 scale) [5, 16] | Plant response rating, Crabgrass, Large [5, 18] | Plant response rating, Foxtail, Giant [6, 18] | Pigweed plant response rating (0 to 100 scale) [8, 16] | Plant response rating, Pigweed [8, 18] | Plant response rating, Velvetleaf [9, 18]
40: Morningglory plant response rating [7, 19]
10: Barnyardgrass plant response rating [1, 20] | Surinam Grass plant response rating [2, 20] | Corn plant response rating [4, 20] | Crabgrass, Large plant response rating [5, 20] | Morningglory plant response rating (0 to 100 scale) [7, 16] | Velvetleaf plant response rating [9, 20]
30: Barnyardgrass plant response rating [1, 19] | Corn plant response rating [4, 19] | Foxtail, Giant plant response rating [6, 20] | Foxtail, Giant plant response rating [6, 19] | Wheat plant response rating [11, 19] | Oat, Wild plant response rating [12, 19]
70: Plant response rating, Cocklebur [3, 18]
80: Barnyardgrass plant response rating (0 to 100 scale) [1, 16] | Plant response rating, Corn [4, 18] | Foxtail, Giant plant response rating (0 to 100 scale) [6, 16] | Rice plant response rating [13] | Sedge, Umbrella plant response rating [14] | Ducksalad plant response rating [15]
50: Surinam Grass plant response rating (0 to 100 scale) [2, 16] | Cocklebur plant response rating [3, 19] | Blackgrass plant response rating [10, 19]
60: Corn plant response rating (0 to 100 scale) [4, 16] | Pigweed plant response rating [8, 20] | Pigweed plant response rating [8, 19] | Velvetleaf plant response rating (0 to 100 scale) [9, 16]
20: Surinam Grass plant response rating [2, 19] | Cocklebur plant response rating (0 to 100 scale) [3, 16] | Cocklebur plant response rating [3, 20] | Crabgrass, Large plant response rating [5, 19] | Plant response rating, Morningglory [7, 18] | Morningglory plant response rating [7, 20] | Velvetleaf plant response rating [9, 19] | Blackgrass plant response rating [10, 20] | Wheat plant response rating [11, 20] | Oat, Wild plant response rating [12, 20]

From US20060069132A1, “Azolecarboxamide herbicides” (priority 2004, published 2006)
